# Laboratory results from the Biogen ADME set (Fang et al. 2023).
# Settings: for aqueous solubility: pH 6.8
Structure (SMILES),MDR1-MDCK efflux ratio,"intrinsic clearance, human liver microsomes [mL/min/kg]","intrinsic clearance, rat liver microsomes [mL/min/kg]",aqueous solubility [µg/mL]
COc1ccc(N2N=C(C)/C(=C(\C)Nc3ccc(S(N)(=O)=O)cc3)C2=O)cc1,41.1,8.92,39.3,20.9
CN1CCCN(c2nc(C(F)(F)F)nc3cc4c(cc23)OCO4)CC1,1.11,22.3,209,43.3
Cc1nc(O)c(Cl)c(N(C)CC2CCN(C)CC2)n1,7.64,≤ 4.74,≤ 10.7,
COc1ccc(OCc2n[nH]c(-c3n[nH]c4c3CCC4)n2)cc1,2.2,50.9,1070,
Cn1c(=O)c(C(=O)CSc2nc3ccccc3n2C)c(N)n(Cc2ccccc2)c1=O,13,839,2400,
Cc1nnc(N2CCC(CNc3ccc(C#N)cn3)C2)c(C#N)c1C (stereo not drawn),,,,8.15
Nc1nccc2c1ncn2[C@H]1C=C(CO)[C@@H](O)[C@H]1O,,≤ 4.74,16.3,
Cc1ccc(S(=O)(=O)Nc2ccccc2-c2nc3ccccc3[nH]2)cc1,,122,541,
COc1c(N)ncnc1N1CCCC(C)(C)CC1,0.912,37.2,1210,38.4
CN1CCN(c2cccc(C#N)n2)CC1,,≤ 4.74,617,
COc1ccc(-c2c(C)n[nH]c2C)cn1,0.678,≤ 4.74,52.2,14.7
O=c1[nH]c2nc(N3CCc4ccccc4C3)ncc2c(=O)n1-c1ccccc1,0.445,,,0.2
COc1cc2nc(-c3ccc(N4CCN(C)CC4)cc3)nc(NCCN3CCOCC3)c2cc1OC,,8.7,90.9,
COc1ccc(COc2ccc(Cc3cnc(N)nc3N)cc2OC)cc1,11,13.3,249,
CCOc1ccccc1N/C=C1\C(=O)Oc2ccccc2C1=O,,,,0.66

# Other lines, results leading:
MDR1-MDCK efflux ratio,"intrinsic clearance, human liver microsomes [mL/min/kg]","intrinsic clearance, rat liver microsomes [mL/min/kg]",aqueous solubility [µg/mL],Structure (SMILES)
0.516,14.9,90.4,9.2,O=C(NC1CCCCCC1)c1ccc(-c2cnco2)cc1
27.6,≤ 4.74,109,62.2,COc1ccc(S(=O)(=O)CCC(=O)Nc2ccc3c(c2)N(C)C(=O)CO3)cc1
0.767,≤ 4.74,17.2,,CCc1cnccc1C(=O)Nc1cnccn1
12.2,≤ 4.74,26.7,47.6,O=C(NCCc1cn2c(n1)CCCC2)c1ccccn1
,15.2,49.6,,Cn1ncc2c(NOCc3ccccc3)ncnc21
0.596,≤ 4.74,16.5,,Cc1ccnc(NCc2cccnc2)n1
,5.69,48.9,,Cc1noc(CC2CCN(Cc3cccnc3)CC2)n1
0.891,311,2060,67.7,CCc1ccc(S(=O)(=O)NCc2ccnc(N3CCCC3)n2)cc1
,82.8,894,3.4,O=C(Nc1cccc(Cl)c1F)c1cccc(N2CCCC2=O)c1
1.2,≤ 4.74,≤ 10.7,34.8,CO[C@H]1COCCN(C(=O)c2cccnc2)C1
